The values that follow come from patent publication US5981586A, “Methods for treating proliferative and inflammatory skin diseases” (priority 1998, dated 1999).

Assay [1] relates to human keratinocytes. Kind of assay: Proliferation of human keratinocytes by PMS/MTS (CellTiter 96 AQueous) assay. In kind it is cell-based. An excerpt: Inhibition of proliferating human keratinocytes in culture have been utilized as a system for screening and identifying potential therapeutic agents such as vitamin D derivatives (Kitano et at., 1991) and retinoids (West et at., 1992), for the treatment of inflammatory, proliferative skin diseases (e.g., psoriasis vulgaris, acne vulgaris, hidradenitis suppurativa).
Human keratinocytes were obtained from Clonetics (San Diego, California) and subcultured into a proprietary (Clonetics) medium optimized for cell growth and maintenance. Proliferation of keratinocytes was determined using MTS, 3-(4,5-dimethylthiazol-2-yl)-5-(3-carboxymethoxyphenyl)-2-(4-sulfophen 1)-2H-tetrazolium (PMS/MTS) as described in the CellTiter 96 AQueous Non-Radioactive Cell Proliferation Assay (Promega Inc.). Only viable cells reduce MTS to the soluble formazan, and viable cell numbers correlate with optical density (Cory et at., 1991).
Cells were seeded at 2 to 4×10^4 cells/ml of growth medium in 24 well microtiter plates. Twenty-four hours post-plating cells were treated with vehicle alone (0.1% DMSO) or various concentrations of 15-deoxy-PG J2 was added to each well (quadruplicate samples per concentration) for an additional 4 days. At each time point 100 ul of the PMS/MTS assay mix is added and absorbance at 490 nm was recorded four hours later with a microplate spectrophotometer (BioTek Instrument Co).

Assay [2] relates to PPARγ. Conditions: cited from earlier work.
Assay [3] has as its system PPARγ. The note with it: cited from earlier work. The source holds these as a separate data set.
For assay [4], the system named is human keratinocytes. Kind of assay: Proliferation of adult human keratinocytes in culture (neutral red dye assay, 4 days). In kind it is cell-based. As to the method: The use of proliferating human keratinocytes in culture as a test system for determining the utility of a compound for treating hyperproliferative and inflammatory disorders of the skin is well documented (Kitanot et at., Euro. J Clin. Investig. 21:53-58 (1991) and West, et at., J. Investigative Derm. 99(1):95-100 (1992).)
Cell number was assessed at time zero (before treatment) and at the end of the treatment period by the neutral red dye assay. See Kitano, et at., Euro. J. Clin. Investig. 21:53-58 (1991) and West, et at., J. Investigative Derm. 99(1):95-100 (1992). Each condition was performed in 12 replicates, on keratinocytes from three subjects and the results were combined from the three subjects. […] The coordinate plots the cell growth of the keratinocytes as the percentage of controls.

SMILES strings stand for the structures. Entries after “also recorded” stand apart in the source; their conditions may differ. Where two headings read alike, the source gives them in different places.

What is called inhibition is the share of the control response that was lost under treatment. Low readings indicate a response near the control, high ones a response far below the control. In turn, `CCCCCC=CC=C1C(=O)C=CC1CC=CCCCC(=O)O` (stereo not shown) [15-deoxy-PG J2, 15-deoxy-A-12,14-prostaglandin J2] returned an inhibition at 2 µM with human keratinocytes [1] (Homo sapiens, Keratinocyte, 96 h, 2 uM, 4 days) of 22%. This compound showed an inhibition at 4 µM in the assay on human keratinocytes [1] (Homo sapiens, Keratinocyte, 96 h, 4 uM, 4 days) of 51%. Moreover, the inhibition at 8 µM with human keratinocytes [1] (Homo sapiens, Keratinocyte, 96 h, 8 uM, 4 days) is 76%. The compound further yielded an inhibition at 20 µM in the assay on human keratinocytes [1] (Homo sapiens, Keratinocyte, 96 h, 20 uM, 4 days) of 100%. Also, in the assay with human keratinocytes [1] (Keratinocyte, 96 h, human keratinocytes, 4 days treatment, read-out: concentration for half-maximal inhibition of growth (IC50)), the IC50 is around 4 µM. The “% inhibition of proliferation of human keratinocytes” value in the assay on human keratinocytes [1] (concentration not printed in the line (first line of Table 1), 4 days) is on record as 5%. Further, in the assay on human keratinocytes [1] (cultured human keratinocytes, 4 days), the “inhibition of proliferation of human keratinocytes (in words)” value was “inhibits the proliferation of human keratinocytes in culture; also recorded: dose-dependent inhibition of proliferation”. In the assay on PPARγ [2], the “activation of PPARγ (in words)” value is “activate PPARγ to varying degrees”.
As to `CC(C)(Oc1ccc(C2CC2(Cl)Cl)cc1)C(=O)O` (stereo not shown) [ciprofibrate], in the assay with PPARγ [3], the “activation of PPARγ (in words)” value is “known to activate PPARγ”.
`CC(C)(Oc1ccc(CCNC(=O)c2ccc(Cl)cc2)cc1)C(=O)O` [bezofibrate]: in the assay with PPARγ [3], the “activation of PPARγ (in words)” value is reported as “known to activate PPARγ”.
With `CCOC(=O)C(C)(C)Oc1ccc(Cl)cc1` [clofibrate], the “activation of PPARγ (in words)” value in the assay with PPARγ [3] is on record as “known to activate PPARγ”.
As for `Cc1c(C)c2c(c(C)c1O)CCC(C)(COc1ccc(CC3SC(=O)NC3=O)cc1)O2` (stereo not shown) [troglitazone], the “inhibition of keratinocyte proliferation (in words)” value in the assay on human keratinocytes [4] (0.1, 1.0 and 10 μM, 4 days, compared with vehicle 0.1% DMSO) was “dose-dependent inhibition of keratinocyte proliferation; also recorded: dose-dependent and saturable; also recorded: dose response inhibition of cell growth”. The IC50 with human keratinocytes [4] (Homo sapiens, Keratinocyte, 96 h, read-out: IC50, antiproliferative effect in human keratinocytes) was 2.1 µM.
